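Cultured in 96-well plates, cells were exposed to test compound for 48 hours across five concentrations. Abbreviation: GI50, concentration required for 50% inhibition of growth.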 Active and inactive are the calls of the source. Cut-off read from the data, not from the text of the source: active = GI50 up to about 1.1 µM and inactive = higher.

Eleven compounds from ChEMBL document CHEMBL1201862, “PubChem BioAssay data set” (2004) can be followed below.

Test systems include 786-0; A498; CAKI-1; HCT-116; HOP-62; IGROV-1; MCF7; MDA-N; NCI-H460; NCI-H522; RPMI-8226; RXF 393; SK-MEL-5; SNB-75; TK-10; DU-145; HT-29; UACC-62; HL-60; SR.
Common to all, as to assay: DTP human tumour cell line panel, 48 h

What is called GI50 is the concentration giving 50% growth inhibition. On to `N#Cc1c(-c2ccccc2)c(/C=N/c2ccc(Cl)cc2)c(=O)n2c1[nH]c1ccccc12`, for which the GI50 is > 100 µM (inactive) in the experiment on 786-0; > 100 µM (inactive) in the experiment with A498; 20.1 µM (inactive) in the experiment with CAKI-1; 0.424 µM (active) with HCT-116; 73.5 µM (inactive) with HOP-62; > 100 µM (inactive) with IGROV-1. Also, the GI50 was > 100 µM (inactive) with MCF7; 20.4 µM (inactive) with MDA-N; > 100 µM (inactive) with NCI-H460; 61.2 µM (inactive) with NCI-H522; 4.43 µM (inactive) in the experiment with RPMI-8226; > 100 µM (inactive) in the experiment with RXF 393. In addition, the GI50 in the experiment on SK-MEL-5, with SNB-75 and in the experiment with TK-10 was > 100 µM (inactive) throughout.
For `CC(C)(NC(=O)OCc1ccccc1)C(=O)OC(=O)C(C)(C)NC(=O)OCc1ccccc1`, the GI50 in the experiment with 786-0 was > 100 µM (inactive); in the experiment with A498, > 100 µM (inactive); in the experiment on CAKI-1, > 100 µM (inactive); in the experiment on DU-145 it was > 10 µM (inactive); with HCT-116, > 100 µM (inactive); with HOP-62, > 100 µM (inactive). The GI50 in the experiment on HT-29 was > 100 µM (inactive); in the experiment on IGROV-1, > 100 µM (inactive); with MCF7 it was > 100 µM (inactive); in the experiment with MDA-N, 23.6 µM (inactive); with NCI-H460, > 100 µM (inactive); with NCI-H522 it was > 100 µM (inactive). Also, the GI50 with RPMI-8226 is > 100 µM (inactive); in the experiment with SK-MEL-5, > 100 µM (inactive); in the experiment with SNB-75 it was > 100 µM (inactive); in the experiment with UACC-62, 18.3 µM (inactive).
Turning to `CN(N=O)C(=O)Nc1c[nH]c(=O)[nH]c1=O`, the GI50 in the experiment with 786-0, with A498, in the experiment on CAKI-1, in the experiment with DU-145, in the experiment on HCT-116 and in the experiment with HL-60 was > 100 µM (inactive) each time. Also, the GI50 in the experiment with HOP-62, in the experiment on HT-29, with IGROV-1, in the experiment with MCF7, with MDA-N and in the experiment with NCI-H522 was > 100 µM (inactive) throughout. Moreover, the GI50 in the experiment on SK-MEL-5, with SNB-75, in the experiment with TK-10 and in the experiment with UACC-62 was > 100 µM (inactive) throughout.
As for `OC1(c2ccccc2)C2CCN(CC2)C1CN1CCOCC1` (stereo not given), the GI50 in the experiment on 786-0, in the experiment on A498, with CAKI-1, in the experiment on DU-145, in the experiment on HCT-116 and in the experiment with HL-60 was > 100 µM (inactive) throughout. Besides, the GI50 in the experiment on HOP-62, in the experiment on HT-29, in the experiment with IGROV-1, in the experiment on MCF7, with NCI-H460 and with NCI-H522 was > 100 µM (inactive) in each case. Besides, the GI50 with RPMI-8226, in the experiment with RXF 393, in the experiment with SK-MEL-5, in the experiment with SNB-75, with SR and in the experiment with TK-10 was > 100 µM (inactive) throughout. The GI50 in the experiment on UACC-62 was > 100 µM (inactive).
Consider `CSC1=C(C(=O)Nc2ccc(Cl)cc2)C(N)=NC1=O`, for which the GI50 in the experiment on 786-0 is > 100 µM (inactive); in the experiment with A498 it was > 100 µM (inactive); in the experiment on CAKI-1, 29 µM (inactive); in the experiment with DU-145, > 100 µM (inactive); in the experiment on HCT-116 it was > 100 µM (inactive); in the experiment with HL-60 it was > 100 µM (inactive). In addition, the GI50 was > 100 µM (inactive) with HT-29; 19.7 µM (inactive) with IGROV-1; > 100 µM (inactive) in the experiment with MCF7; > 100 µM (inactive) in the experiment with NCI-H460; > 100 µM (inactive) in the experiment with NCI-H522; > 100 µM (inactive) in the experiment with RPMI-8226. Also, the GI50 is > 100 µM (inactive) in the experiment with RXF 393; > 100 µM (inactive) with SK-MEL-5; > 100 µM (inactive) in the experiment on SNB-75; 37.8 µM (inactive) in the experiment with SR; > 100 µM (inactive) with TK-10; > 100 µM (inactive) with UACC-62.
Take `CCCCCCCCCC/C=C/CC(=O)SCCNC(=O)CCNC(=O)[C@@H](O)C(C)(C)COP(=O)(O)OP(=O)(O)OCC1OC(n2cnc3c(N)ncnc32)C(O)C1OP(=O)(O)O` (stereo not given in full): the GI50 with 786-0, in the experiment on A498, in the experiment on CAKI-1, in the experiment with DU-145, with HCT-116 and with HL-60 was > 10 µM (inactive) throughout. The GI50 in the experiment on HOP-62, in the experiment on HT-29, in the experiment with IGROV-1, with MCF7, in the experiment with MDA-N and with NCI-H460 was > 10 µM (inactive) each time. Further, the GI50 in the experiment with RPMI-8226, with RXF 393, in the experiment on SK-MEL-5, in the experiment on SNB-75, in the experiment with TK-10 and in the experiment with UACC-62 was > 10 µM (inactive) throughout.
With `O=C(c1ccncc1)C1C(=O)c2ccccc2C1C1(O)c2ccccc2CC1C(O)c1ccncc1` (stereo not given), the GI50 was 39.9 µM (inactive) with 786-0; 49.1 µM (inactive) in the experiment with A498; 34.7 µM (inactive) with CAKI-1; 28.2 µM (inactive) in the experiment with HCT-116; 35.6 µM (inactive) in the experiment on HOP-62; 35.6 µM (inactive) in the experiment with HT-29. Besides, the GI50 with IGROV-1 was 40.5 µM (inactive); in the experiment on MCF7, 39.6 µM (inactive); in the experiment on MDA-N, 13.3 µM (inactive); with NCI-H460 it was 34.2 µM (inactive); in the experiment with NCI-H522, 31.3 µM (inactive); with RPMI-8226, 19 µM (inactive). Further, the GI50 was 39.6 µM (inactive) in the experiment on RXF 393; 36 µM (inactive) in the experiment with SK-MEL-5; 50 µM (inactive) in the experiment on SNB-75; 36.7 µM (inactive) in the experiment on SR; 90.8 µM (inactive) in the experiment on TK-10; 18.7 µM (inactive) in the experiment with UACC-62.
`N#CCCN(CCC#N)c1ccc(/C=C2\N=C(c3ccccc3)N(c3ccc(Cl)cc3)C2=O)cc1`: the GI50 with 786-0, with A498, with DU-145, in the experiment on HCT-116, in the experiment with HL-60 and in the experiment on HOP-62 was > 100 µM (inactive) each time. In addition, the GI50 with HT-29, with IGROV-1, with MCF7, in the experiment with MDA-N, in the experiment on NCI-H460 and in the experiment on NCI-H522 was > 100 µM (inactive) in each case. Further, the GI50 in the experiment with RPMI-8226 was > 100 µM (inactive); with RXF 393, > 100 µM (inactive); with SK-MEL-5, 76.7 µM (inactive); in the experiment with TK-10, > 100 µM (inactive); with UACC-62 it was 39.7 µM (inactive).
Turning to `CC(=O)C1C(=O)C(=O)N(c2ccccc2)C1=O` (stereo not given), the GI50 in the experiment with 786-0, in the experiment with CAKI-1, in the experiment on DU-145, in the experiment on HCT-116, in the experiment with HL-60 and in the experiment with HOP-62 was > 100 µM (inactive) each time. Moreover, the GI50 in the experiment on HT-29, with IGROV-1, with MCF7, in the experiment with MDA-N, with NCI-H460 and in the experiment with NCI-H522 was > 100 µM (inactive) throughout. In addition, the GI50 with RXF 393, in the experiment on SK-MEL-5, with SNB-75, in the experiment with TK-10 and in the experiment on UACC-62 was > 100 µM (inactive) in each case.
Consider `CCOC(=O)Cc1cc(=O)[nH]c(-n2[nH]c(C)c(CCO)c2=O)n1`, for which the GI50 in the experiment on 786-0, with A498, in the experiment with CAKI-1, in the experiment on DU-145, with HCT-116 and with HL-60 was > 100 µM (inactive) each time. Also, the GI50 with HOP-62, with HT-29, in the experiment with IGROV-1, in the experiment on MCF7, in the experiment on MDA-N and in the experiment with NCI-H460 was > 100 µM (inactive) in each case. For the same compound, the GI50 in the experiment on NCI-H522, in the experiment on RPMI-8226, in the experiment on RXF 393, in the experiment on SK-MEL-5, in the experiment on TK-10 and in the experiment on UACC-62 was > 100 µM (inactive) each time.
On to `CC1(C)CC2=NC(SSC3=C(C#N)C(c4ccc(Br)cc4)C4=C(O)CC(C)(C)CC4=N3)=C(C#N)C(c3ccc(Br)cc3)C2=C(O)C1` (stereo not given), for which the GI50 with 786-0 is > 100 µM (inactive); in the experiment with A498, > 100 µM (inactive); in the experiment on CAKI-1, > 100 µM (inactive); in the experiment with DU-145 it was > 100 µM (inactive); in the experiment with HCT-116, > 100 µM (inactive); in the experiment on HL-60, 46.6 µM (inactive). Moreover, the GI50 in the experiment with HOP-62 was > 100 µM (inactive); in the experiment with HT-29, > 100 µM (inactive); in the experiment with IGROV-1, > 100 µM (inactive); in the experiment with MDA-N it was > 100 µM (inactive); in the experiment on NCI-H460, > 100 µM (inactive); in the experiment with NCI-H522, 57.7 µM (inactive). Moreover, the GI50 with RPMI-8226 is 67.8 µM (inactive); in the experiment with RXF 393 it was > 100 µM (inactive); in the experiment on SK-MEL-5 it was > 100 µM (inactive); with SR it was 48.3 µM (inactive); in the experiment on TK-10 it was > 100 µM (inactive); in the experiment on UACC-62, > 100 µM (inactive).
